This note sets out measurements from ChEMBL document CHEMBL1201862, “PubChem BioAssay data set” (2004).

Common to all, as to experiment: inhibition of tumour cell growth, NCI panel, 48 h
In test [1] the test system is HCC 2998.
Test [2] concerns M14.
Test [3] deals with UO-31.
The test system of test [4] is UACC-62.
Test [5] deals with OVCAR-5.
Test [6] relates to RPMI-8226.
Test [7] has as its system ACHN.
The test system of test [8] is MDA-MB-231.
Test [9] deals with UACC-257.
In test [10] the test system is Hs-578T.
The test system of test [11] is OVCAR-3.
Test [12] deals with SK-MEL-28.
The subject of test [13] is SF-539.
Test [14] relates to Malme-3M.
The subject of test [15] is OVCAR-8.
Test [16] has as its system U-251.
Test [17] has as its system BT-549.

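Dose response: 5 concentrations. Exposure: 48 h. Format: 96-well plates. Endpoint: linear interpolation; highest concentration if not reached. GI50 marks 50% less growth.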 The source made the active and inactive calls. Rule as the data show it: active = GI50 up to about 1.1 µM and inactive = higher. Some results are limits rather than exact numbers.

`CCOC(=O)/C=C/CC(C)(C)COC(C)=O`: the GI50 in test [1] was > 10 µM (inactive); in [2] it was 6.75 µM (inactive); in [3], > 10 µM (inactive); in test [4] it was > 10 µM (inactive); in test [5], 9.08 µM (inactive); in [6] it was > 10 µM (inactive). For the same compound, the GI50 in [7] is 6.75 µM (inactive); in [8], > 10 µM (inactive); in [9] it was > 10 µM (inactive); in test [10], 0.406 µM (active); in test [11], > 10 µM (inactive); in test [12], > 10 µM (inactive).

As for `COc1ccc(N[S+]([O-])C2CCCCC2)cc1` (stereo unspecified), the GI50 was 59.2 µM (inactive) in [1]; > 100 µM (inactive) in test [13]; > 100 µM (inactive) in test [2]; > 100 µM (inactive) in [14]; > 100 µM (inactive) in test [15]; > 100 µM (inactive) in test [3]. Besides, the GI50 in test [5], in test [16], in test [6], in [7], in test [8] and in test [9] was > 100 µM (inactive) in each case. Further, the GI50 in test [10], in test [11] and in test [12] was > 100 µM (inactive) each time.

On to `COc1cc(OC)c(/C=N/N=C(\N)NO)c(OC)c1`, for which the GI50 in test [1] was > 100 µM (inactive); in test [13], > 100 µM (inactive); in [2], 95.5 µM (inactive); in test [14] it was > 100 µM (inactive); in [15], > 100 µM (inactive); in [3], 29 µM (inactive). In addition, the GI50 in [4] is 25.6 µM (inactive); in test [5] it was > 100 µM (inactive); in [16], > 100 µM (inactive); in [6] it was > 100 µM (inactive); in test [7], 15.6 µM (inactive); in test [8] it was > 100 µM (inactive). In addition, the GI50 in [9], in test [10], in test [11] and in test [12] was > 100 µM (inactive) each time.

`CC1CN=C(N(C)C(=O)Nc2ccc(Cl)cc2)S1` (stereo unspecified): the GI50 in test [1] was 4.29 µM (inactive); in test [13] it was 10.6 µM (inactive); in test [2] it was 1.72 µM (inactive); in test [14], 53.1 µM (inactive); in test [15] it was 45.7 µM (inactive); in [3], 10.1 µM (inactive). Further, the GI50 in test [5] is 4.47 µM (inactive); in test [16], 13.3 µM (inactive); in test [6], > 10 µM (inactive); in [7], 1.3 µM (inactive); in test [8] it was 32.1 µM (inactive); in [9] it was 11.5 µM (inactive). Moreover, the GI50 was 25.5 µM (inactive) in test [10], 27.2 µM (inactive) in [11] and 16.5 µM (inactive) in test [12].

`COc1cc2c(c3nc4ccccc4nc13)-c1ccc(SC)c(=O)cc1[C@@H](NC(C)=O)CC2`: the GI50 in test [1] was 0.0935 µM (active); in test [13] it was 0.0248 µM (active); in test [2], 0.0617 µM (active); in [14], 0.0106 µM (active); in [15], 0.0815 µM (active); in test [3], 6.3 µM (inactive). For the same compound, the GI50 in [4] was 0.0373 µM (active); in test [16] it was 0.0345 µM (active); in test [6] it was 0.0387 µM (active); in test [7] it was 1.15 µM (inactive); in test [8], 0.0966 µM (active); in test [9], 0.069 µM (active). For the same compound, the results for the GI50 in test [10], in [11] and in test [12] were 0.0182 µM (active), 0.0545 µM (active) and > 56.4 µM (inactive), respectively.

For the compound `COC(=O)Cn1c(=O)oc2nc(-c3ccccc3)cc(C(F)(F)F)c21`, the GI50 in test [1] is > 100 µM (inactive); in test [13], > 100 µM (inactive); in test [2] it was > 100 µM (inactive); in test [15], 18.3 µM (inactive); in test [3], > 100 µM (inactive); in test [4], > 100 µM (inactive). Besides, the GI50 in [5] is > 100 µM (inactive); in test [16] it was 61.2 µM (inactive); in [6], 27.5 µM (inactive); in test [7] it was > 100 µM (inactive); in test [8], > 100 µM (inactive); in test [9], 95.9 µM (inactive). Also, the GI50 in test [11] was 75.3 µM (inactive); in [17], > 100 µM (inactive); in test [12] it was 24.4 µM (inactive).

For `CC(C)C(O)(C(=O)OCN1C(=O)C2C3C=CC(C2C1=O)C1C2C(=O)N(COC(=O)C(O)(C(C)C)C(C)O)C(=O)C2C31)C(C)O` (stereo unspecified), the GI50 in [1], in test [13], in [2], in test [14], in test [15] and in test [3] was > 100 µM (inactive) each time. For the same compound, the GI50 in [4], in test [5], in test [16], in test [6], in test [7] and in test [8] was > 100 µM (inactive) in each case. Moreover, the GI50 in [10], in [11] and in [12] was > 100 µM (inactive) each time.

On to `CC1SC(=O)SC1C` (stereo unspecified), for which the GI50 in test [1], in test [13], in [2], in [15], in test [3] and in test [5] was > 100 µM (inactive) each time. For the same compound, the GI50 in test [16], in [6], in test [7], in test [8], in test [9] and in [10] was > 100 µM (inactive) throughout. The GI50 in [12] is > 100 µM (inactive).

`NC(Cc1ccc(CP(=O)(O)O)cc1)C(=O)O` (stereo unspecified): the GI50 in test [1], in test [13], in test [2], in test [15], in [3] and in [4] was > 100 µM (inactive) each time. Further, the GI50 in test [5], in test [16], in [6], in [7], in [8] and in [9] was > 100 µM (inactive) each time. The GI50 in [10], in [11] and in test [12] was > 100 µM (inactive) throughout.

For the compound `COc1ccc(OC)c2c(C(C)=O)cccc12`, the GI50 in [1], in test [13], in [14], in test [15], in test [3] and in test [4] was > 100 µM (inactive) throughout. Besides, the GI50 in test [5], in test [16], in test [6], in test [7], in [8] and in test [9] was > 100 µM (inactive) in each case. For the same compound, the GI50 is 88.9 µM (inactive) in test [10], > 100 µM (inactive) in [11] and > 100 µM (inactive) in test [12].
